Test results published in patent publication US11149033B2, “Heteroaryl compound, enantiomer, diastereomer or pharmaceutically acceptable salt thereof, and antiviral composition containing same as active ingredient” (priority 2016, dated 2021).
Where two headings read alike, the source gives them in different places.

Key:
[1] = tested on: A/California/07/2009 (H1N1); assay: Antiviral activity (drug efficacy evaluation by concentration) against A/California/07/2009 (H1N1); type: cell-based, A type influenza virus; settings: Influenza A virus
A/Perth/16/2009 (H3N2) = assay: Antiviral activity (drug efficacy evaluation by concentration) against A/Perth/16/2009 (H3N2); type: cell-based, A type influenza virus; settings: Influenza A virus
B/Florida/04/2006 = assay: Antiviral activity (drug efficacy evaluation by concentration) against B/Florida/04/2006; type: cell-based, B type influenza virus
[2] = H1N1, A/California/07/2009 (H1N1), read-out: EC50 A/California/07/2009 (H1N1)
[3] = H3N2, A/Perth/16/2009 (H3N2), read-out: EC50 A/Perth/16/2009 (H3N2)
[4] = read-out: EC50 B/Florida/04/2006, B/Florida/04/2006
[5] = CC50 B/Florida/04/2006, cytotoxicity in the B/Florida/04/2006 assay
[6] = CC50, third EC50/CC50 column pair (c7), beside the EC50 of c6

| SMILES | melting point [°C] | EC50 [1, 2] [µM] | EC50 (A/Perth/16/2009 (H3N2); [3]) [µM] | EC50 (B/Florida/04/2006; [4]) [µM] | CC50 (in vitro; [5]) [µM] | EC50 ([1]; H1N1, read-out: EC50) [µM] | EC50 (A/Perth/16/2009 (H3N2); H3N2, read-out: EC50) [µM] | EC50 (B/Florida/04/2006) [µM] | CC50 (in vitro; CC50, beside the EC50 of c2) [µM] | CC50 (in vitro; CC50, beside the EC50 of c4) [µM] | CC50 (in vitro; [6]) [µM] |
| --- | --- | --- | --- | --- | --- | --- | --- | --- | --- | --- | --- |
| Cc1nn(Cc2nnc(SCc3ccc(-c4ccccc4)cc3)o2)c(C)c1Br [Compound 2, 2-(([1,1′-biphenyl]-4-ylmethyl)thio)-5-((4-bromo-3,5-dimethyl-1H-pyrazol-1-yl)methyl)-1,3,4-oxadiazole] | 135.9 | 47.5 | 46.7 | > 50 | > 50 |  |  |  |  |  |  |
| Cc1nn(Cc2nnc(SCc3cccc(-c4ccccc4)c3)o2)c(C)c1Br [Compound 6, 2-(([1,1′-biphenyl]-3-ylmethyl)thio)-5-((4-bromo-3,5-dimethyl-1H-pyrazol-1-yl)methyl)-1,3,4-oxadiazole] | 90.3 | 2.91 | 2.74 | 3 | > 50 |  |  |  |  |  |  |
| Cc1nn(Cc2nnc(SCc3cccc4ccccc34)o2)c(C)c1Br [Compound 8, 2-((4-bromo-3,5-dimethyl-1H-pyrazol-1-yl)methyl)-5-((naphthalen-1-ylmethyl)thio)-1,3,4-oxadiazole] | 112.1 | 6.94 | 10.5 | 7.48 | > 50 |  |  |  |  |  |  |
| COc1ccccc1CSc1nnc(Cn2nc(C)c(Br)c2C)o1 [Compound 10, 2-((4-bromo-3,5-dimethyl-1H-pyrazol-1-yl)methyl)-5-((2-methoxybenzyl)thio)-1,3,4-oxadiazole] | 87.3 | 16.8 | 18.4 | 15.5 | > 50 |  |  |  |  |  |  |
| Cc1nn(Cc2nnc([S+]([O-])Cc3ccccc3-c3ccccc3)o2)c(C)c1Br (centres unmarked) [Compound 12, 2-(([1,1′-biphenyl]-2-ylmethyl)sulfinyl)-5-((4-bromo-3,5-dimethyl-1H-pyrazol-1-yl)methyl)-1,3,4-oxadiazole] | 48.2 | 2.51 | 3.26 | 2.61 | 7.81 |  |  |  |  |  |  |
| CC(=O)c1ccccc1CSc1nnc(Cn2nc(C)c(Br)c2C)o1 [Compound 28, 1-(2-(((5-((4-bromo-3,5-dimethyl-1H-pyrazol-1-yl)methyl)-1,3,4-oxadiazol-2-yl)thio)methyl)phenyl)ethan-1-one] | 63.7 | > 50 | > 50 | > 50 | > 50 |  |  |  |  |  |  |
| Cc1nn(Cc2nnc(SCc3ccccc3Oc3ccccc3)o2)c(C)c1Br [Compound 29, 2-((4-bromo-3,5-dimethyl-1H-pyrazol-1-yl)methyl)-5-((2-phenoxybenzyl)thio)-1,3,4-oxadiazole] | 92.3 | 1.2 | 1.4 | 1.99 | 5.23 |  |  |  |  |  |  |
| Cc1ccc(-c2ccccc2CSc2nnc(Cn3nc(C)c(Br)c3C)o2)cc1 [Compound 32, 2-((4-bromo-3,5-dimethyl-1H-pyrazol-1-yl)methyl)-5-(((4′-methyl-[1,1′-biphenyl]-2-yl)methyl)thio)-1,3,4-oxadiazole] | 102.3 | 0.6 | 0.5 | 1.38 | 7.32 |  |  |  |  |  |  |
| Cc1nn(Cc2nnc(SCc3ccccc3-c3ccc(Cl)cc3)o2)c(C)c1Br [Compound 33, 2-((4-bromo-3,5-dimethyl-1H-pyrazol-1-yl)methyl)-5-(((4′-chloro-[1,1′-biphenyl]-2-yl)methyl)thio)-1,3,4-oxadiazole] | 84.7 | 0.6 | 0.5 | 1.46 | 6.28 |  |  |  |  |  |  |
| Cc1nn(Cc2nnc(SCc3ccccc3-c3ccsc3)o2)c(C)c1Br [Compound 35, 2-((4-bromo-3,5-dimethyl-1H-pyrazol-1-yl)methyl)-5-((2-(thiophen-3-yl)benzyl)thio)-1,3,4-oxadiazole] | 86.9 | 0.7 | 0.8 | 1.88 | > 50 |  |  |  |  |  |  |
| Cc1ccccc1CC(C)c1nnc(Cc2ccc(Br)cc2)o1 (centres unmarked) [Compound 140, 2-(4-bromobenzyl)-5-(1-(o-tolyl)propan-2-yl)-1,3,4-oxadiazole] |  |  |  |  |  | 18.2 | 19.9 | 14.1 | > 50 | > 50 | > 50 |
| C/C(=C\c1ccccc1C)c1nnc(Cc2ccc(Br)cc2)o1 [Compound 144, 2-(4-bromobenzyl)-5-(1-(o-tolyl)prop-1-en-2-yl)-1,3,4-oxadiazole] |  |  |  |  |  | 48.7 | 49.3 | > 50 | > 50 | > 50 | > 50 |
| Cc1ccc(Cc2nnc(/C=C/c3ccccc3C(C)C)o2)cc1C [Compound 146, 2-(3,4-dimethylbenzyl)-5-(2-isopropylstyryl)-1,3,4-oxadiazole] |  |  |  |  |  | 5.27 | 3.74 | 3.07 | 24.1 | > 50 | > 50 |
| CC(C)c1ccccc1/C=C/c1nnc(C(C)c2ccccc2)o1 (centres unmarked) [Compound 147, 2-(2-isopropylstyryl)-5-(1-phenylethyl)-1,3,4-oxadiazole] |  |  |  |  |  | 6 | 6 | 4.4 | > 50 | > 50 | > 50 |
| CC(C)Cc1ccc(C(C)c2nnc(/C=C/c3ccccc3C(C)C)o2)cc1 (centres unmarked) [Compound 148, 2-(1-(4-isobutylphenyl)ethyl)-5-(2-isopropylstyryl)-1,3,4-oxadiazole] |  |  |  |  |  | 39.8 | 38.9 | 45.1 | > 50 | > 50 | > 50 |
| COc1ccccc1/C=C/c1nnc(Cc2ccc(Br)cc2)o1 [Compound 163, 2-(4-bromobenzyl)-5-(2-methoxystyryl)-1,3,4-oxadiazole] | 106.3 |  |  |  |  | 32.3 |  | > 50 | > 50 | > 50 | > 50 |
| CC(C)c1ccccc1/C=C/c1nnc(Cc2ccc(Br)c(F)c2)o1 [Compound 164, 2-(4-bromo-3-fluorobenzyl)-5-(2-isopropylstyryl)-1,3,4-oxadiazole] |  |  |  |  |  | 5.16 | 4.32 | 8.35 | > 50 | > 50 | > 50 |
| Cc1ccc(F)c(Cc2nnc(/C=C/c3ccccc3C(C)C)o2)c1 [Compound 173, 2-(2-fluoro-5-methylbenzyl)-5-(2-isopropylstyryl)-1,3,4-oxadiazole] |  |  |  |  |  | 1.77 | 1.71 | 1.91 | 13.5 | 12.6 | 15.8 |
| Cc1ccc(/C=C/c2nnc(Cc3cccc(Br)c3)o2)c(Cl)c1 [Compound 195, 2-(3-bromobenzyl)-5-(2-chloro-4-methylstyryl)-1,3,4-oxadiazole] |  |  |  |  |  | 6.14 | 5.79 | 5.74 | > 50 | > 50 | > 50 |
| Fc1ccc(/C=C/c2nnc(Cc3cncc(Br)c3)o2)c(Cl)c1 [Compound 205, (E)-2-((5-bromopyridin-3-yl)methyl)-5-(2-chloro-4-fluorostyryl)-1,3,4-oxadiazole] |  |  |  |  |  | 43 | 21.6 | 34.9 | > 50 | > 50 | > 50 |
| COc1ccccc1/C=C/c1nnc(Cc2cccc(Br)c2)o1 [Compound 210, 2-(3-bromobenzyl)-5-(2-methoxystyryl)-1,3,4-oxadiazole] |  |  |  |  |  | 47.3 | 23.5 | 36.2 | 48.1 | 48.1 | 46.8 |
